The source made the active and inactive calls. The calls are words filed in the database; no cut-off is given here.
Key:
Type in all cases: nucleic-acid assay
Nucleic Acid [1] = assay: Binding affinity to 21G telomeric DNA assessed as formation of G-quadruplex DNA at 20 uM after 5 mins by label-free fluorescence spectroscopy in presence of LiCl and exonulease 1
Nucleic Acid [2] = assay: Binding affinity to single stranded DNA20 assessed as formation of G-quadruplex DNA at 20 uM by UV light illumination photographic analysis in presence of exonuclase 1 and lithium cation
Nucleic Acid [3] = assay: Binding affinity to 21G telomeric DNA assessed as formation of c-myc G-quadruplex DNA at 20 uM by UV light illumination photographic analysis in presence of exonuclase 1 and KCl
Nucleic Acid [4] = assay: Binding affinity to single stranded DNA20 assessed as formation of G-quadruplex DNA at 20 uM by circular dichroism assay in presence of KCl and exonuclase 1
Nucleic Acid [5] = assay: Binding affinity to 21G telomeric DNA assessed as formation of G-quadruplex DNA at 20 uM by circular dichroism assay in presence of exonuclase 1 and bis-(benzimidazole)aryl
Nucleic Acid [6] = assay: Binding affinity to 21G telomeric DNA assessed as formation of G-quadruplex DNA at 20 uM after 45 mins in KCl-deficient buffer by label-free fluorescence spectroscopy in presence of exonuclase 1 and TMPyP4
Nucleic Acid [7] = assay: Binding affinity to 21G telomeric DNA assessed as formation of G-quadruplex DNA at 20 uM after 45 mins by label-free fluorescence spectroscopy in presence of exonuclase 1, Li+ cation and TMPyP4
Nucleic Acid [8] = assay: Binding affinity to single stranded DNA18 assessed as formation of G-quadruplex DNA at 20 uM by UV light illumination photographic analysis in presence of exonuclase 1 and KCl
Nucleic Acid [9] = assay: Binding affinity to single stranded DNA20 assessed as formation of G-quadruplex DNA at 20 uM by circular dichroism assay in presence of exonuclase 1 and bis-(benzimidazole)aryl
Nucleic Acid [10] = assay: Binding affinity to 21G telomeric DNA assessed as formation of G-quadruplex DNA at 20 uM by circular dichroism assay in presence of KCl and exonuclase 1
Nucleic Acid [11] = assay: Binding affinity to single stranded DNA20 assessed as formation of G-quadruplex DNA at 20 uM by UV light illumination photographic analysis in presence of exonuclase 1 and bis-(benzimidazole)aryl
Nucleic Acid [12] = assay: Binding affinity to 21G telomeric DNA assessed as formation of d(G4T4g4) quadruplex DNA at 20 uM after 5 mins by label-free fluorescence spectroscopy in presence of exonuclase 1 and Na+ cation
Nucleic Acid [13] = assay: Binding affinity to single stranded DNA23 assessed as formation of G-quadruplex DNA at 20 uM by UV light illumination photographic analysis in presence of exonuclase 1 and sodium cation
Nucleic Acid [14] = assay: Binding affinity to single stranded DNA20 assessed as formation of G-quadruplex DNA at 20 uM by circular dichroism assay in presence of sodium cation and exonuclase 1
Nucleic Acid [15] = assay: Binding affinity to 21G telomeric DNA assessed as formation of G-quadruplex DNA at 20 uM after 5 mins in KCl-deficient buffer by label-free fluorescence spectroscopy in presence of exonuclase 1
Nucleic Acid [16] = assay: Binding affinity to 21G telomeric DNA assessed as formation of G-quadruplex DNA at 20 uM by UV light illumination photographic analysis in presence of exonuclase 1 and bis-(benzimidazole)aryl
Nucleic Acid [17] = assay: Binding affinity to 21G telomeric DNA assessed as formation of G-quadruplex DNA at 20 uM after 5 mins by label-free fluorescence spectroscopy in presence of exonuclase 1 and increasing concentration of KCl
Nucleic Acid [18] = assay: Binding affinity to single stranded DNA20 assessed as formation of G-quadruplex DNA at 20 uM by UV light illumination photographic analysis in presence of exonuclase 1 and sodium cation
Nucleic Acid [19] = assay: Binding affinity to 21G telomeric DNA assessed as formation of G-quadruplex DNA at 20 uM after 45 mins by label-free fluorescence spectroscopy in presence of exonuclase 1, KCl and TMPyP4
Nucleic Acid [20] = assay: Binding affinity to single stranded DNA23 assessed as formation of G-quadruplex DNA at 20 uM by UV light illumination photographic analysis in presence of exonuclase 1 and lithium cation
Nucleic Acid [21] = assay: Binding affinity to single stranded DNA18 assessed as formation of G-quadruplex DNA at 20 uM by circular dichroism assay in presence of lithium cation and exonuclase 1
Nucleic Acid [22] = assay: Binding affinity to single stranded DNA20 assessed as formation of G-quadruplex DNA at 20 uM by UV light illumination photographic analysis in presence of exonuclase 1 and KCl
Nucleic Acid [23] = assay: Binding affinity to single stranded DNA23 assessed as formation of G-quadruplex DNA at 20 uM by UV light illumination photographic analysis in presence of exonuclase 1 and KCl
Nucleic Acid [24] = assay: Binding affinity to single stranded DNA18 assessed as formation of G-quadruplex DNA at 20 uM by UV light illumination photographic analysis in presence of exonuclase 1 and lithium cation
Nucleic Acid [25] = assay: Binding affinity to 21G telomeric DNA assessed as formation of VEGF G-quadruplex DNA at 20 uM by UV light illumination photographic analysis in presence of exonuclase 1 and KCl
Nucleic Acid [26] = assay: Binding affinity to single stranded DNA18 assessed as formation of G-quadruplex DNA at 20 uM by UV light illumination photographic analysis in presence of exonuclase 1 and sodium cation
Nucleic Acid [27] = assay: Binding affinity to single stranded DNA23 assessed as formation of G-quadruplex DNA at 20 uM by circular dichroism assay in presence of KCl and exonuclase 1
Nucleic Acid [28] = assay: Binding affinity to single stranded DNA20 assessed as formation of G-quadruplex DNA at 20 uM after 45 mins in KCl-deficient buffer by label-free fluorescence spectroscopy in presence of exonuclase 1 and TMPyP4
Nucleic Acid [29] = assay: Binding affinity to 21G telomeric DNA assessed as formation of G-quadruplex DNA at 20 uM after 5 mins by label-free fluorescence spectroscopy in presence of exonuclase 1 and KCl
Nucleic Acid [30] = assay: Binding affinity to single stranded DNA23 assessed as formation of G-quadruplex DNA at 20 uM by circular dichroism assay in presence of sodium cation and exonuclase 1
Nucleic Acid [31] = assay: Binding affinity to single stranded DNA23 assessed as formation of G-quadruplex DNA at 20 uM by circular dichroism assay in presence of lithium cation and exonuclase 1
Nucleic Acid [32] = assay: Binding affinity to single stranded DNA18 assessed as formation of G-quadruplex DNA at 20 uM by circular dichroism assay in presence of KCl and exonuclase 1
Nucleic Acid [33] = assay: Binding affinity to single stranded DNA18 assessed as formation of G-quadruplex DNA at 20 uM by circular dichroism assay in presence of sodium cation and exonuclase 1
Nucleic Acid [34] = assay: Binding affinity to 21G telomeric DNA assessed as formation of d(G4T4g4) quadruplex DNA at 20 uM after 5 mins in Na+ cation-deficient buffer by label-free fluorescence spectroscopy in presence of exonuclase 1
Nucleic Acid [35] = assay: Binding affinity to 21G telomeric DNA assessed as formation of c-kit G-quadruplex DNA at 20 uM by UV light illumination photographic analysis in presence of exonuclase 1 and KCl
Nucleic Acid [36] = assay: Binding affinity to single stranded DNA20 assessed as formation of G-quadruplex DNA at 20 uM by circular dichroism assay in presence of lithium cation and exonuclase 1

Activity (Nucleic Acid [1]): inactive | Activity (Nucleic Acid [2]): inactive | Activity (Nucleic Acid [3]): Active | Activity (Nucleic Acid [4]): inactive | Activity (Nucleic Acid [5]): Active | Activity (Nucleic Acid [6]): inactive | Activity (Nucleic Acid [7]): inactive | Activity (Nucleic Acid [8]): inactive | Activity (Nucleic Acid [9]): inactive | Activity (Nucleic Acid [10]): Active | Activity (Nucleic Acid [11]): inactive | Activity (Nucleic Acid [12]): Active | Activity (Nucleic Acid [13]): inactive | Activity (Nucleic Acid [14]): inactive | Activity (Nucleic Acid [15]): inactive | Activity (Nucleic Acid [16]): Active | Activity (Nucleic Acid [17]): Active | Activity (Nucleic Acid [18]): inactive | Activity (Nucleic Acid [19]): Active | Activity (Nucleic Acid [20]): inactive | Activity (Nucleic Acid [21]): inactive | Activity (Nucleic Acid [22]): inactive | Activity (Nucleic Acid [23]): inactive | Activity (Nucleic Acid [24]): inactive | Activity (Nucleic Acid [25]): Active | Activity (Nucleic Acid [26]): inactive | Activity (Nucleic Acid [27]): inactive | Activity (Nucleic Acid [28]): inactive | Activity (Nucleic Acid [29]): Active | Activity (Nucleic Acid [30]): inactive | Activity (Nucleic Acid [31]): inactive | Activity (Nucleic Acid [32]): inactive | Activity (Nucleic Acid [33]): inactive | Activity (Nucleic Acid [34]): inactive | Activity (Nucleic Acid [35]): Active | Activity (Nucleic Acid [36]): inactive
SMILES: C[N+](C)(C)CCC[Si]1(C)C(c2ccccc2)=C(c2ccccc2)C(c2ccccc2)=C1c1ccccc1

— ChEMBL document CHEMBL1152664, “Visual observation of G-quadruplex DNA with the label-free fluorescent probe silole with aggregation-induced emission” (Bioorg Med Chem, 2009)
